Structures can show the parent of a compound that is named as a salt. Where two headings read alike, the source gives them in different places.
Columns and labels:
[1] = Stability of pirenzepine in solution; type: physicochemical; settings: pH 5
[2] = solution in up to 2% strength, topical ocular, adult volunteers; cited from earlier work
[3] = system: chick model of myopia; settings: subconjunctival injections; cited from earlier work
[4] = system: myopia; settings: chicks; cited from earlier work
[5] = system: myopia; settings: stump-tailed monkeys; cited from earlier work
[6] = system: myopia; settings: cited from earlier work
[7] = system: myopia; settings: tree shrews; cited from earlier work

| stability in solution [1] | Compound | comfort and systemic effects [2] | axial eye growth [3] | development of myopia [4] | development of myopia [5] | development of myopia ([6]; humans) | development of myopia [7] | effectiveness as myopia therapy ([6]; mild cycloplegic agent, several studies) |
| --- | --- | --- | --- | --- | --- | --- | --- | --- |
| stable in solution especially at pH 5 | CN1CCN(CC(=O)N2c3ccccc3C(=O)Nc3cccnc32)CC1 [Pirenzepine, 5,11-dihydro-11-[(4-methyl-1-piperazinyl)acetyl]-6H pyrido [2,3-b][1,4]-benzodiazepin-6-one dihydrochloride monohydrate] | comfortable and without systemic effects | attenuated axial eye growth | – | – | – | – | – |
| – | CN1[C@@H]2CC[C@H]1C[C@@H](OC(=O)C(CO)c1ccccc1)C2 (stereo partly drawn) [atropine] | – | attenuated axial eye growth | prevents the development of myopia | prevents the development of myopia | prevents the development of myopia | prevents the development of myopia | – |
| – | CCN(Cc1ccncc1)C(=O)C(CO)c1ccccc1 (stereo not drawn) [tropicamide] | – | – | – | – | – | – | effective in a number of studies but failed in other studies |
